Test results taken from the supplement of paper PMC10307832.

Legend:
Experiment in all cases: relative viability (nuclei count vs DMSO), 5 days (fraction); higher = more cells survive
[1] = compound: CC1=CC(=C(N1C2=CC=C(C=C2)Cl)C)C(=O)CN3CCCCC3 [IU1-47] + CS(=O)(=O)CCNCc1ccc(-c2ccc3ncnc(Nc4ccc(OCc5cccc(F)c5)c(Cl)c4)c3c2)o1 [Lapatinib] (partner 2 µM)
How it was run: (§1)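 A single step with final 0.05% Triton X-100, 1% formaldehyde and 1 ug/ml Hoechst fixed the cells and stained nuclei 5 days after treatment. Lung cancer cell lines in 1536-well plates had been treated by pin tool the day after seeding with one drug alone or a fixed anchor-drug dose plus five library-drug doses (not always all listed) in √10 steps, and nuclei were counted on 4× images. Relative viability is the ratio of nuclei in treated wells to nuclei in vehicle wells, taken as the median of duplicate plates.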

[2] = compound: Cc1nc(C(=O)NCC(=O)O)c(O)c2ccc(Oc3ccccc3)cc12 [FG-4592] + CCNC(=O)c1noc(-c2cc(C(C)C)c(O)cc2O)c1-c1ccc(CN2CCOCC2)cc1 [Luminespib] (partner 0.01 µM)
How it was run: as §1

[3] = compound: CC1=CC(=C(N1C2=CC=C(C=C2)Cl)C)C(=O)CN3CCCCC3 [IU1-47] + CC1(C)CCC(c2ccc(Cl)cc2)=C(CN2CCN(c3ccc(C(=O)NS(=O)(=O)c4ccc(N[C@H](CCN5CCOCC5)CSc5ccccc5)c(S(=O)(=O)C(F)(F)F)c4)cc3)CC2)C1 [Navitoclax] (partner 0.5 µM)
How it was run: as §1

[4] = compound: Cc1nc(C(=O)NCC(=O)O)c(O)c2ccc(Oc3ccccc3)cc12 [FG-4592] + Cc1nc(Nc2ncc(C(=O)Nc3c(C)cccc3Cl)s2)cc(N2CCN(CCO)CC2)n1 [Dasatinib] (partner 0.075 µM)
How it was run: as §1

Row | Cell Line | relative viability ([1]; first compound 0.08 µM) | relative viability ([1]; first compound 0.253 µM) | relative viability ([1]; first compound 0.8 µM) | relative viability ([1]; first compound 2.53 µM) | relative viability ([1]; first compound 8 µM) | relative viability ([2]; first compound 0.08 µM) | relative viability ([2]; first compound 0.253 µM) | relative viability ([2]; first compound 0.8 µM) | relative viability ([2]; first compound 2.53 µM) | relative viability ([2]; first compound 8 µM) | relative viability ([3]; first compound 0.08 µM) | relative viability ([3]; first compound 0.253 µM) | relative viability ([3]; first compound 0.8 µM) | relative viability ([3]; first compound 2.53 µM) | relative viability ([3]; first compound 8 µM) | relative viability ([4]; first compound 0.08 µM) | relative viability ([4]; first compound 0.253 µM) | relative viability ([4]; first compound 0.8 µM) | relative viability ([4]; first compound 2.53 µM) | relative viability ([4]; first compound 8 µM)
1 | NCI-H647 | 1.02 | 1.22 | 1.37 | 1.22 | 0.49 | 0.183 | 0.181 | 0.174 | 0.201 | 0.109 | 1.31 | 1.3 | 1.19 | 1.26 | 1.04 | 0.186 | 0.202 | 0.145 | 0.172 | 0.183
2 | NCI-H1792 | 0.923 | 0.999 | 0.988 | 0.956 | 0.514 | 0.36 | 0.492 | 0.454 | 0.413 | 0.478 | 0.65 | 0.725 | 0.76 | 0.678 | 0.251 | 0.871 | 0.72 | 0.846 | 0.668 | 0.748
3 | SK-LU-1 | 0.857 | 0.967 | 0.82 | 0.822 | 0.839 | 0.184 | 0.174 | 0.187 | 0.223 | 0.202 | 0.853 | 0.855 | 0.819 | 0.839 | 0.847 | 0.167 | 0.17 | 0.15 | 0.159 | 0.151
4 | NCI-H1650 | 0.755 | 0.717 | 0.935 | 0.57 | 0.351 | 0.206 | 0.208 | 0.219 | 0.197 | 0.209 | 1.08 | 1.35 | 1.08 | 1.36 | 0.918 | 0.304 | 0.361 | 0.281 | 0.295 | 0.342
5 | NCI-H2009 | 0.997 | 1.03 | 1.07 | 0.43 | 1.54 | 1.04 | 0.936 | 1.01 | 0.959 | 0.999 | 1.23 | 1.2 | 1.16 | 1.14 | 1.18 | 0.323 | 0.172 | 0.267 | 0.283 | 0.27
6 | LOU-NH91 | 0.784 | 0.877 | 0.812 | 0.762 | 0.702 | 0.275 | 0.342 | 0.299 | 0.325 | 0.367 | 0.772 | 0.687 | 0.638 | 0.609 | 0.652 | 0.554 | 0.521 | 0.512 | 0.559 | 0.533
7 | NCI-H2405 | 1.04 | 1.12 | 1.1 |  | 1.11 | 0.577 |  | 0.675 | 0.691 | 0.658 | 1.02 | 0.902 | 0.862 |  | 0.897 | 0.218 |  | 0.231 | 0.184 | 0.204
8 | LCLC-97TM1 | 1.34 | 0.635 | 0.92 |  | 0.78 | 0.763 | 0.728 | 0.854 | 0.695 | 0.797 | 0.526 | 0.502 | 0.517 |  | 0.404 | 0.873 | 0.734 | 0.907 | 0.928 | 1.03
9 | NCI-H596 | 1.04 | 1.11 | 1.02 | 1.2 | 0.989 | 1.14 | 1.08 | 0.886 | 1.15 | 0.676 | 1.05 | 0.961 | 0.982 | 0.869 | 1.05 | 0.573 | 0.736 | 0.418 | 0.537 | 0.562
10 | NCI-H727 | 0.762 |  | 1.11 | 0.642 | 0.833 | 0.341 | 0.237 | 0.335 | 1.02 | 0.326 | 0.454 |  | 0.597 | 0.413 | 0.391 | 0.375 | 0.473 | 0.326 | 0.49 | 0.41
11 | H3255 | 0.242 | 0.242 | 0.256 | 0.238 | 0.246 | 0.891 | 0.804 | 0.848 | 0.945 | 0.875 | 0.557 | 0.602 | 0.489 | 0.511 | 0.446 | 0.361 | 0.418 | 0.417 | 0.404 | 0.48
12 | SK-MES-1 | 0.5 | 0.503 | 0.541 | 0.465 | 0.45 | 0.837 | 0.721 | 0.683 | 0.794 | 0.785 | 1.21 | 1.34 | 1.27 | 1.29 | 1.17 | 0.534 | 0.434 | 0.351 | 0.365 | 0.34
13 | NCI-H1437 | 0.726 | 0.716 | 0.801 | 0.76 | 0.744 | 1.21 | 1.11 | 1.27 | 0.984 | 0.95 | 1.15 | 1.08 | 1.1 | 0.982 | 0.955 | 0.409 | 0.309 | 0.335 | 0.392 | 0.345
14 | LU99A | 0.933 | 1.07 | 1.16 | 1.02 | 1 | 0.287 | 0.254 | 0.294 | 0.234 | 0.279 | 0.824 | 0.815 | 0.974 | 0.937 | 0.75 | 0.535 | 0.371 | 0.402 | 0.561 | 0.58
15 | HCC-827 | 0.198 | 0.215 | 0.197 | 0.19 | 0.207 | 0.643 | 0.587 | 0.702 | 0.657 | 0.591 | 1.06 | 1.08 | 1.01 | 1.02 | 0.995 | 0.264 | 0.379 | 0.386 | 0.259 | 0.282
